Laboratory results from patent publication US20110275679A1, “FLUPIRTINE HYDROCHLORIDE MALEIC ACID COCRYSTAL” (Bionevia Pharmaceuticals, Inc., priority 2008, published 2011).
Counter-ions that a name gives are not always drawn.

Legend:
[1] = cited from earlier work
[2] = Intrinsic dissolution in water at 37° C. (Woods apparatus pellet, UV absorbance at 343 nm); assay type: physicochemical
Protocol: Intrinsic Dissolution: Pellets of approximately 200 mg were pressed at 3000 lbs. for 1 minute in a standard Woods apparatus, with a surface area of 0.5 cm^2. One pellet was tested for each material. The samples were rotated in a VanKel dissolution apparatus, with automated sampling, at 100 RPM in 900 mL of water at 37° C. Aliquots were taken every two minutes and not filtered prior to analysis. […] A wavelength of approximately 343 nm was chosen for the cocrystal to avoid potential interference from maleic acid. To determine the rate of dissolution of each material, a plot was generated of the absorbance over time for each material. From this plot, a linear region was chosen from the initial dissolution period of each material. Concentrations were plotted versus time for the regions. A straight-line was fit to the data for each material. The slope of these lines provides the dissolution rate for each of the materials, expressed as [μg/mL]/min. The rates were not normalized for the surface area of the pellet. Aliquots of the dissolution medium were removed manually at the end of the run and analyzed by UV spectrophotometry, and the remainder of the pellets were recovered for XRPD analysis. FIG. 2-3 depicts the UV absorbance (at 343 nm) vs. time curves for the intrinsic dissolution experiment on flupirtine maleate in water at 37° C. […] Intrinsic dissolution experiments were performed under sink conditions in water at 37° C. […] The intrinsic dissolution rate of the 1:1 flupirtine hydrochloride maleic acid cocrystal was ˜0.21 μg/mL/min. There appeared to be a slow chemical change occurring in the dissolution medium. The solid recovered from the intrinsic dissolution experiment was analyzed by XRPD and determined to correspond to a mixture of the flupirtine hydrochloride maleic acid cocrystal and a small amount of an unidentified material.

[3] = in man; cited from earlier work
[4] = water, 37° C., 100 RPM, 900 mL, 0.5 cm^2 pellet, not normalized for surface area

For CCOC(=O)Nc1ccc(NCc2ccc(F)cc2)nc1N [flupirtine maleate], the solubility in water [1] is listed as “insoluble in water”, the intrinsic dissolution rate [2, 4] is listed as 0.088 [μg/mL]/min and the “aqueous solubility as indicated by low absorbance values in the intrinsic dissolution experiment” value ([2]; water, 37° C., UV absorbance at 343 nm) is listed as “poor aqueous solubility”.
For CCOC(=O)Nc1ccc(NCc2ccc(F)cc2)nc1N [flupirtine, 2-amino-3-carbethoxyamino-6-(p-fluorobenzylamino)pyridine], the “time to maximum plasma concentration (tmax)” value [3] is listed as 2 h.
With CCOC(=O)Nc1ccc(NCc2ccc(F)cc2)nc1N.Cl.O=C(O)C=CC(=O)O the intrinsic dissolution rate ([2]; sink conditions in water at 37° C.) was ~0.21 µg/mL/min and the intrinsic dissolution rate [2, 4] was 0.21 [μg/mL]/min.
